{"source": "patent US9572831B2", "about": "“Composition and method for sulfated non-anticoagulant low molecular weight heparins in cancer and tumor metastasis” (priority 2013, dated 2017)", "key": {"MPanc96-luc cells": {"tested_on": "MPanc96-luc cells", "type": "in vivo, athymic nude mice", "settings": "S-NACH 20 mg/kg, tinzaparin 5 mg/kg", "procedure": "MPanc96-luc cells were harvested as described above and were orthotopically implanted (2×10^5 cells in 50 μl PBS per mouse) in the pancreas of anesthetized athymic nude mice. Just before treatment initiation, animals (n=10 per group) were randomized by tumor mass detected by an in vivo imaging system (IVIS, described below). Heparin derivatives S-NACH at 20 mg/kg and tinzaparin at 5 mg/kg were administered subcutaneously daily. Gemcitabine at 100 mg/kg was injected intraperitoneally twice a week alone or in combination with either S-NACH or tinzaparin. All mice used for treatment response evaluations were euthanized after 28 days. See Table 2 for the protocol of the study. Imaging was performed once per week to monitor tumor growth. Mice bearing MPanc96-luc tumors were anaesthetized using isoflurane, injected subcutaneously with 50 μl D-luciferin (30 mg/ml), then imaged. Photographic and luminescence images were taken at constant exposure time. Xenogen IVIS® Living Image software version 3.2 was used to quantify non-saturated bioluminescence in regions of interest. Light emission between 5.5×10^6-7.0×10^10 photons was assumed to be indicative of viable luciferase-labeled tumor cells while emissions below this range were considered as background. Bioluminescence was quantified as photons/second for each region of interest. In vivo tumor kinetic growth and metastasis were monitored by signal intensity. Ex vivo imaging was performed to confirm the signal intensity in the tumors after the termination. All specimens were analyzed by histology for routine analysis. Specimens were fixed in 10% buffered formalin, processed routinely, and embedded in paraffin. Then, after fixation, the specimens were transferred into the embedding chambers to hold the specimens in position until the paraffin became solid to prevent further rotation. Four μm serial sections were cut, and then stained using haematoxylin and eosin. Sections were evaluated for various pathologic parameters using a light microscope (Leica, Buffalo Grove, Ill.)."}, "Mpanc96-luc cancer cells": {"tested_on": "Mpanc96-luc cancer cells", "assay": "Liver metastasis and recurrence after excision of pancreatic cancer", "type": "in vivo", "settings": "experiment and dose not stated at the place", "excerpt": "Different groups of mice received either saline (control), LMWH, SNACH or S-SNACH, followed by injection of luciferase transfected pancreatic cancer cells into the mouse spleen. The treatment continued daily for two weeks. IVIS imaging was done once a week to measure the metastatic load to various organs. The tumor burden measurements were based on the bioluminescence signal intensity of the pancreatic cancer cells. The second experiment was intended to study the effect of the compounds (LMWH, SNACH, and S-SNACH) on metastasis after tumor excision surgery. Pancreatic Mpanc96 cells were injected into the tail of the pancreas and one week later animals were randomized into different groups. One group received saline and another group received LMWH, SNACH, and S-SNACH at 30 minutes before resection of the pancreatic tumor, followed by daily treatment for 3 weeks. Tumor metastasis was evaluated by IVIS imagining. A bleeding time experiment was done to evaluate the relative effect on bleeding time. […] Tumor luminescent signal intensity, weight, and histopathology were assessed at the termination of the study.\nMice were randomly distributed into control and treatment groups, averaging 10 mice in each group. […] The spread of cancer cells was monitored using IVIS imaging once per week, and at the end of the 3 week treatment period the mice were euthanized."}}, "data": [{"substance": "tinzaparin", "values": [{"measurement": "tumor necrosis (histology)", "setting": "MPanc96-luc cells", "value": "modest increase in necrotic area"}, {"measurement": "tumor recurrence after surgical excision", "setting": "Mpanc96-luc cancer cells", "value": "not"}]}]}
